Among the data in US6653340B1, “Compounds useful in the complement, coagulat and kallikrein pathways and method for their preparation” (BioCryst Pharmaceuticals, Inc., priority 1997, dated 2003) are IC50 values, retold here.

Molecules are shown by their SMILES.

Type in all cases: biochemical
The target of one assay is Plasmin (Homo sapiens, UniProt P00747). The assay is described as follows: Plasmin inhibition assay (thioester substrate). Conditions: plasmin 0.004 units/mL; read-out: Plasmin (Serine Protease Inhibitory Data, IC50). As to the method: (§1) The compounds to be tested were dissolved in a stock solution of DMSO at 10.0 or 100 mM. A portion of this stock solution was added to assay buffer in a final volume of 100 μL containing the enzyme of interest. Controls included buffer alone and enzyme solutions to which DMSO was added. Substrate was added to the reaction wells immediately or after incubation at room temperature. The reaction rates were measured spectrophotometrically by the generation of product at 405 nm for 200 sec. Background absorbance at 690 nm was measured and subtracted from the absorbance at 405 nm for each well.
(§2) The reaction rate for enzyme alone was compared to the rate of enzyme in the presence of inhibitor and the percent inhibition was calculated as shown below:
(§3) Percent Inhibition=[Rate without inhibitor−Rate with inhibitor)/(Rate without inhibitor)]×100
(§4) Compounds in the examples were tested a minimum of three times.
(§5) Thrombin was assayed at 12.5 U/ml using 0.37 mM N-Benzoyl-Phe-Val-Arg-p-nitroanilide (Svendsen, L.; Blomback B.; Blomback, M.; Olsson, P. I. Substrate for determination of trypsin, thrombin and thrombin-like enzymes. Folia Haematol. 1972, 98, 446-454.) as the substrate in 100 mM HEPES, 10 mM CaCl2, 10% DMSO, pH 7.5. Factor Xa, 0.5 U/mL, was assayed in 50 mM HEPES, 150 mM NaCl, 10 mM CaCl2, pH 8.0 using Chromozyme X, 0.17 mM, as the substrate. Plasmin (0.004 units/mL), factor XIIa ([…]) and kallikrein (0.02 units/mL were assayed using modifications of the techniques originally described by McRae, et al. (Biochemistry. 1981, 20, 7196-7206). The assays were run in 200 mM triethanolamine, pH 7.8 and 100 mM Tris-HCl, 100 mM EDTA, […] using Z-Lys-SBzl, 0.13 mM and […], 0.16 mM, as substrates, respectively.

Another assay has as its target T1, C1s (Homo sapiens, UniProt P09871).
T1 sequence (P09871 16-688): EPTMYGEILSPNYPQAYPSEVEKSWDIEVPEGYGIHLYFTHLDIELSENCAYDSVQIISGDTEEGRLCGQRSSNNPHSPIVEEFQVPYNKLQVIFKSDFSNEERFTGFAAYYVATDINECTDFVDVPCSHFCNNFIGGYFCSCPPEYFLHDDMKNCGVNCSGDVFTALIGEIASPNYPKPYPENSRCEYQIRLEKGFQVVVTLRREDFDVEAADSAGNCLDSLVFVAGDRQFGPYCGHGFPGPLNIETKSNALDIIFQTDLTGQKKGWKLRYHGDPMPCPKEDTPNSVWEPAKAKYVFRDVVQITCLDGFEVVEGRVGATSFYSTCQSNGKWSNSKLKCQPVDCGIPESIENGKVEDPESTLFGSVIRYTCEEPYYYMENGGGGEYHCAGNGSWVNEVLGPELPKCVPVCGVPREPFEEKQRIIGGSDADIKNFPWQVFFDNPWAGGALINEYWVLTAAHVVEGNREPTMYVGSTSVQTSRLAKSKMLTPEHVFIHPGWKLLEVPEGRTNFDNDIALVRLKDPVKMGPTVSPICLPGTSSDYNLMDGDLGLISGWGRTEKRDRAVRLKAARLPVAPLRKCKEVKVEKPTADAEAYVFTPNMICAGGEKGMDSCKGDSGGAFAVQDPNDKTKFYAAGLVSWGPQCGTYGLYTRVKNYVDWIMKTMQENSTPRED
In words: C1s esterolytic inhibition assay (Z-Lys-SBzl substrate). The following applies: Z-Lys-SBzl 1.29 mM, C1s 3 to 13 nM; read-out: Cls (Serine Protease Inhibitory Data, IC50). Here is the method:
as §1, §2, §3, §4
C1s esterolytic activity was assayed using a modification of the technique originally described by Kam using Z-Lys-SBzl, 1.29 mM as substrate and C1s at 3 to 13 nM.

The target in another assay is kallikrein (Homo sapiens, UniProt P03952). The assay is described as follows: Kallikrein inhibition assay (thioester substrate). Conditions: kallikrein 0.02 units/mL; read-out: Kallikrein (Serine Protease Inhibitory Data, IC50). As to the method: as §1, §2, §3, §4, §5
The target of a further assay is Factor D (Homo sapiens, UniProt P00746). In words: Factor D esterolytic inhibition assay (Z-Lys-SBzl substrate). Also on record: Factor D was purified from the urine of a patient with Fanconi syndrome by ion exchange chromatography; from tissue; host or cells: urine of a patient with Fanconi syndrome. The following applies: Z-Lys-SBzl 1.29 mM, pH 7.5, 10% DMSO; read-out: Factor D (Serine Protease Inhibitory Data, IC50).
Source text: A modification of the procedure of Volanakis (Volankis, J. E.; Barnum, S. R.; Kilpatrick, J. M. Purification and properties of human factor D. Methods in Enzymol. 1993, 223, 82-97) for purification of Factor D was utilized as described by Yamauchi (Yamauchi, Y.; Stevens, J. W.; Macon, K. J.; Volanakis, J. E. Recombinant and native zymogen forms of human complement factor D. J. Immunol. 1994, 152, 3645-3653. Briefly, Factor D was purified from the urine of a patient with Fanconi syndrome by ion exchange chromatography using BioRex 70 and two rounds of ion-exchange chromatography in a Pharmacia FPLC system using a HR5/5 Mono S column.
as §1, §2, §3, §4
An established esterolytic assay for the measurement of Factor D activity and inhibition of Factor D activity was used (Kam, C. M.; McRae, B. J.; Harper, J. W.; Niemann, M. A.; Volanakis, J. E.; Powers, J. C. Human complement proteins D, C2, and B Active site mapping with peptide thioester substrates. J Biol. Chem. 1987, 262, 3444-3451). […] Hydrolysis of this compound by Factor D liberated a free sulfhydryl group which is then reacted with 5,5′-dithiobis(2nitrobenzoic acid) producing an intense yellow color (Habeeb, A. F. S. A. Reaction of protein sulfhydryl groups with Ellman's Reagent. Methods in Enzymol. 1976, 25, 457-464.). The assays were performed in 96 well microtiter plates and rates of hydrolysis were monitored at 405 nm in a Anthos Labtec HT2 plate reader. Hydrolysis rates were reported as change in mOD/min. The assay was conducted in 100 mM HEPES, 500 mM NaCl, pH 7.5 containing 10% DMSO in a final volume of 200 μL per well.

For a further assay, the target named is Thrombin (Homo sapiens, UniProt P00734). In words: Thrombin inhibition assay (N-Benzoyl-Phe-Val-Arg-p-nitroanilide substrate). Conditions: thrombin 12.5 U/ml, pH 7.5; read-out: Thrombin (Serine Protease Inhibitory Data, IC50). As to the method: as §1, §2, §3, §4, §5
Another assay has as its target T2, factor XIIa (Homo sapiens, UniProt P00748).
T2 sequence (P00748 373-615 limits assumed): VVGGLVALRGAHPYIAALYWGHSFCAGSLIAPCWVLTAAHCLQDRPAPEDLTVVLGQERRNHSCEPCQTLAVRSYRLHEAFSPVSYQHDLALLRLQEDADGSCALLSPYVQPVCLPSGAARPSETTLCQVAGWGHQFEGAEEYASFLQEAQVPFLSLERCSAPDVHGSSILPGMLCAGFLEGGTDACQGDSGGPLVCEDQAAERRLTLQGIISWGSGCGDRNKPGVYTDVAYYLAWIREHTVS
In words: Factor XIIa inhibition assay (thioester substrate). Conditions: read-out: XIIa (Serine Protease Inhibitory Data, IC50). As to the method:
as §1, §2, §3, §4, §5

Another assay deals with Factor Xa (Homo sapiens, UniProt P00742). In words: Factor Xa inhibition assay (Chromozyme X substrate). Conditions: Factor Xa 0.5 U/mL, pH 8.0; read-out: Xa (Serine Protease Inhibitory Data, IC50). As to the method:
as §1, §2, §3, §4, §5

Chain of Factor Xa (P00742 235-488 limits assumed): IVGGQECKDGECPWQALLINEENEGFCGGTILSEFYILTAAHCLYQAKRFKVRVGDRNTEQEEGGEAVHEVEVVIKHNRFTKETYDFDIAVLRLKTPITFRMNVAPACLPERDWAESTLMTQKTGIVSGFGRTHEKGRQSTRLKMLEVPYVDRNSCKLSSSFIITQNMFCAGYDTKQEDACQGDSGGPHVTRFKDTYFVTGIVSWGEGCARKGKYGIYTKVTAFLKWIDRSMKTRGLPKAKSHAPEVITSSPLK
Chain of Factor Xa (P00742 41-179 partner limits assumed): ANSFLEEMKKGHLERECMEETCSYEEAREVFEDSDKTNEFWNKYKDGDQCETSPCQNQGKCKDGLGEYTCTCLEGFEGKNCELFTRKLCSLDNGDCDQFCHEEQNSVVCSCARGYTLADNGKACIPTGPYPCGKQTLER
Chain of kallikrein (P03952 whole entry): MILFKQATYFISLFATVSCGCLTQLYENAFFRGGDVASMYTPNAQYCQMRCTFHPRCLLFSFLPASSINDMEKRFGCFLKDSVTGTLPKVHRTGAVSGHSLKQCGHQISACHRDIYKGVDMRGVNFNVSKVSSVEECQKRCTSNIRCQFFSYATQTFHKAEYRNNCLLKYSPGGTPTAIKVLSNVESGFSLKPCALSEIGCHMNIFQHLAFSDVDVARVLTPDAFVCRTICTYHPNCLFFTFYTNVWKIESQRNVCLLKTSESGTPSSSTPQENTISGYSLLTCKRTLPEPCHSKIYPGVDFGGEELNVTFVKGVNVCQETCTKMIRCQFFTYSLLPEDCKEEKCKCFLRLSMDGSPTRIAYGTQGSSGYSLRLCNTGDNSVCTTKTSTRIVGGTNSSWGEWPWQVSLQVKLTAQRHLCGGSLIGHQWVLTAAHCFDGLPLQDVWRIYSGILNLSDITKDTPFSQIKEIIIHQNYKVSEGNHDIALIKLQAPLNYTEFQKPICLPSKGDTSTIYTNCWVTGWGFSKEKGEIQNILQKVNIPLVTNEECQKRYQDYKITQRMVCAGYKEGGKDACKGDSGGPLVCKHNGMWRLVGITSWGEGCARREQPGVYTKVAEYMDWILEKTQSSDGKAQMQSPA
Chain of Plasmin (P00747 581-810 limits assumed, species assumed): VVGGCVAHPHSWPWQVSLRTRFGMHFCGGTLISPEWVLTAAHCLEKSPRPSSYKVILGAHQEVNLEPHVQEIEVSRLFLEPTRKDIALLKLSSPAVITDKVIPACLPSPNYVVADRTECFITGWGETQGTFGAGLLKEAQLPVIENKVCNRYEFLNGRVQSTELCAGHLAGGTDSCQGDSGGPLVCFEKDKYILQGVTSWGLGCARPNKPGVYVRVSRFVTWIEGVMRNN
Chain of Plasmin (P00747 97-580 partner limits assumed, species assumed): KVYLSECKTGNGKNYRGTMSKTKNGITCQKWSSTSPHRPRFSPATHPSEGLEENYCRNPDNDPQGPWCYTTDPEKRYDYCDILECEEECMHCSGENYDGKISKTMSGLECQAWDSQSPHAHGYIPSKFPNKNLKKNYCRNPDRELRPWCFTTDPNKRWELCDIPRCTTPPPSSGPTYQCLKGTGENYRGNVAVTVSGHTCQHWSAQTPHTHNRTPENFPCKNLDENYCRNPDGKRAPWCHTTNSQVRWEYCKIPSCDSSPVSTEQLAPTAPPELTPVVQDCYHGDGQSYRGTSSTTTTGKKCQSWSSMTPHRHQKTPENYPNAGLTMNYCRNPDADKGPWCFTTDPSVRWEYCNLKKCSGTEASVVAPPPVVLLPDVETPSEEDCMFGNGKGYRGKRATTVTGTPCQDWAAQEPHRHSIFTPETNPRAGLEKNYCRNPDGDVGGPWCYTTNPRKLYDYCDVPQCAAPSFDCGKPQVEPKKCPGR
Chain of Factor D (P00746 26-253): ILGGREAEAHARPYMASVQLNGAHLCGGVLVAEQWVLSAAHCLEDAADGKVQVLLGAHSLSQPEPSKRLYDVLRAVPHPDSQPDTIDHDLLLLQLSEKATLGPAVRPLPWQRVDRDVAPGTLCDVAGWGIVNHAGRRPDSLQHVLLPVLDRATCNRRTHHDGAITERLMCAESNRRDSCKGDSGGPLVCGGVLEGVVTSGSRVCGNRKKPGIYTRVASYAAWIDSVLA

The term IC50 denotes the midpoint of a concentration-inhibition curve. Consider `N=C(N)c1cc2ccc(OC(=O)c3ccco3)cc2o1` [Example 1, 2-Amidino-6-benzofuranyl 2-furanylcarboxylate], for which the IC50 at Plasmin is 42 nM; at C1s it was 37 nM; on kallikrein, 5.4 nM; on Factor D it was 3650 nM; at Thrombin, 57 nM; on factor XIIa it was 20 nM. In addition, on Factor Xa, the IC50 was found to be 60 nM.
Regarding `N=C(N)c1cc2ccc(OC(=O)c3cccs3)cc2o1` [Example 2], the IC50 at Plasmin stood at 817 nM; at C1s it was 519 nM; at Factor D, 9110 nM; on Thrombin it was 520 nM; on Factor Xa, 996 nM.
Take `N=C(N)c1cc2cc(OC(=O)c3ccco3)ccc2o1` [Example 3]: the IC50 amounted to 23 nM at Plasmin; 56 nM on C1s; 5.4 nM at kallikrein; 460 nM on Factor D; 65 nM at Thrombin; 20.2 nM at factor XIIa. Further, the IC50 at Factor Xa amounted to 4 nM.
As for `N=C(N)c1cc2cc(OC(=O)c3cccs3)ccc2o1` [Example 4], the IC50 stood at 116 nM on Plasmin; 50 nM at C1s; 5590 nM at Factor D; 124 nM at Thrombin; 880 nM on Factor Xa.
Take `N=C(N)c1cc2cc(OC(=O)c3ccoc3)ccc2o1` [Example 5]: the IC50 amounted to 325 nM on Plasmin; 76 nM at C1s; 2850 nM at Factor D; 104 nM on Thrombin; 1580 nM at Factor Xa.
In the case of `N=C(N)c1cc2cc(OC(=O)c3ccsc3)ccc2o1` [Example 6], the IC50 at Plasmin turned out to be 546 nM; at C1s, 122 nM; at Factor D, 10800 nM; at Thrombin, 361 nM; on Factor Xa it was 500 nM.
Turning to `N=C(N)c1cc2ccc(OC(=O)c3ccccc3)cc2s1` [Example 7], the IC50 at Plasmin was found to be 11 nM; at C1s, 11 nM; on kallikrein it was 1.3 nM; at Factor D, 500 nM; at Thrombin it was 39 nM; on factor XIIa, 901 nM. Moreover, at Factor Xa, the IC50 worked out at 23 nM.
As to `N=C(N)c1cc2ccc(OC(=O)c3ccco3)cc2s1` [Example 8], the IC50 was found to be 1 nM on Plasmin; 1.7 nM on C1s; 1.4 nM on kallikrein; 147 nM at Factor D; 44 nM at Thrombin; 5.4 nM at factor XIIa. Also, the IC50 at Factor Xa amounted to 1 nM.
Regarding `N=C(N)c1cc2ccc(OC(=O)c3cccs3)cc2s1` [Example 9], the IC50 at Plasmin was found to be 4.1 nM; on C1s, 1.6 nM; at kallikrein, 1.4 nM; on Factor D, 96 nM; at Thrombin it was 42 nM; at factor XIIa it was 6 nM. Further, at Factor Xa, the IC50 came to 3.2 nM.
On to `N=C(N)c1cc2ccc(OC(=O)c3ccoc3)cc2s1` [Example 10], for which the IC50 at Plasmin amounted to 1 nM; at C1s it was 4.1 nM; on kallikrein it was 1.6 nM; on Factor D, 177 nM; at Thrombin it was 47 nM; on factor XIIa it was 17.4 nM. The IC50 at Factor Xa is 1 nM.
Take `N=C(N)c1cc2ccc(OC(=O)c3ccsc3)cc2s1` [Example 11]: the IC50 came to 9 nM on Plasmin; 4.3 nM on C1s; 1.6 nM on kallikrein; 175 nM on Factor D; 39 nM on Thrombin; 12.7 nM at factor XIIa. Besides, the IC50 on Factor Xa came out at 6 nM.
`N=C(N)c1nc2ccc(OC(=O)c3ccccc3)cc2s1` [Example 12]: the IC50 on Plasmin came out at 37 nM; at C1s it was 5.3 nM; at kallikrein, 3.8 nM; at Factor D, 564 nM; at Thrombin it was 44 nM; at factor XIIa, 13 nM. At Factor Xa, the IC50 came to 52 nM.
With `N=C(N)c1nc2ccc(OC(=O)c3ccco3)cc2s1` [Example 13], the IC50 at Plasmin came out at 2 nM; at C1s, 3 nM; on kallikrein it was 4 nM; on Factor D, 421 nM; on Thrombin, 25 nM; at factor XIIa, 9 nM. The half-maximal inhibitory concentration (IC50) on Factor Xa was 1 nM.
For the compound `N=C(N)c1nc2ccc(OC(=O)c3ccc(Cl)s3)cc2s1` [Example 17], the IC50 at Plasmin stood at 3 nM; on C1s it was 2 nM; at Factor D, 260 nM; on Thrombin it was 48 nM; at Factor Xa, 2 nM.
In the case of `N=C(N)C1COc2cc(OC(=O)c3ccco3)ccc2C1` (centres unmarked) [Example 19], the IC50 at C1s was 750 nM; on kallikrein, 661 nM; on Factor D, 50000 nM.
Take `N=C(N)c1ccc2cc(OC(=O)c3ccccc3)ccc2c1` [reference, reference compound]: the IC50 at C1s amounted to 40 nM; on Factor D, 4000 nM; on Thrombin it was 3110 nM; on Factor Xa, 7170 nM.
